Measured values taken from patent publication US20210227824A1, “METHOD OF REDUCING CROP DAMAGE” (Bayer Aktiengesellschaft, priority 2018, published 2021).

Tests used:
Format in all cases: in vivo
[1] = test system: winter wheat, TRZAW; assay: Method A: safener seed treatment, herbicide post-emergence, visual % crop damage; settings: safener seed treatment 0.5 g/kg only, no herbicide
Experimental: (§1) For the safener seed treatment, sufficient seeds were weighed into screw top glass bottles approximately twice the volume of the seeds.
(§2) The safener (mefenpyr-diethyl, formulated as suspension concentrate (SC)) was weighed out so that the required rates (g a.i./kg seed) would be obtained, dissolved in water (1 ml water per 10 g of seeds), and added to the seeds to produce a slurry.
(§3) The bottles were capped and then placed in an overhead shaker (set at medium speed for up to 1 hour) so that the seeds were evenly coated with the slurry. The bottles were uncapped and the seeds were sown as described above.
(§4) For the seed treatment process, the blind formulation (the SC formulation without the safener mefenpyr-diethyl) was used as seed treatment as described above.
Post-emergence application of the herbicide was done when the plants had reached growth stage BBCH11.
(§5) After application, the test plants were kept in the greenhouse under good growth conditions.
(§6) Values in the table below are mean values from at least 3 replicates.

[2] = test system: winter wheat, TRZAW; assay: Method C: safener seed treatment, herbicide and safener tank mix post-emergence, visual % crop damage
Experimental: as §1, §2, §3, §4
Post-emergence application was done when the plants had reached growth stage BBCH11.
The safener (mefenpyr-diethyl) was formulated as wettable powder (WP).
(§7) The combination of herbicide and safener was applied as a tank mix.
as §5, §6

[3] = test system: winter wheat, TRZAW; assay: Method D: safener seed treatment, herbicide and safener tank mix pre-emergence, visual % crop damage
Experimental: as §1, §2, §3, §4, §7, §5, §6

[4] = safener seed treatment 0.5 g/kg only, no herbicide

CCOC(=O)C1=NN(c2ccc(Cl)cc2Cl)C(C)(C(=O)OCC)C1 (centres unmarked) [Safener seed treatment, ethyl 1-(2,4-dichlorophenyl)-5-(ethoxycarbonyl)-5-methyl-2-pyrazoline-3-carboxylate]
% crop damage [1]: 0%
% crop damage ([2]; safener 200 g/ha in tank mix only, post-emergence, 14 days after application): 5%
% crop damage [2, 4]: 0%
% crop damage ([3]; safener 200 g/ha in tank mix only, pre-emergence, 14 days after application): 5%
% crop damage [3, 4]: 2%
